Measured values taken from ChEMBL document CHEMBL4814028, “Design, synthesis, and antibacterial evaluation of PFK-158 derivatives as potent agents against drug-resistant bacteria” (Bioorg Med Chem Lett, 2021).
Converted amounts (≈) assume the structure as drawn.

Experiments:
Enterobacter cloacae [1] = assay: Synergistic antibacterial activity against carbapenem-resistant Enterobacter cloacae D01 mcr-1 negative isolate in presence of colistin by checkerboard assay; type: functional
Enterobacter cloacae [2] = assay: Antibacterial activity against carbapenem-resistant Enterobacter cloacae D01 mcr-1 negative isolate by checkerboard assay; type: functional
A549 = assay: Cytotoxicity against human A549 cells; type: cell-based
Staphylococcus aureus [3] = assay: Antibacterial activity against methicillin-sensitive Staphylococcus aureus ATCC 29213 by agar method; type: functional
Escherichia coli [4] = assay: Antibacterial activity against NDM-1 positive Escherichia coli ATCC 2469 by agar method; type: functional
Escherichia coli [5] = assay: Antibacterial activity against carbapenem-resistant Escherichia coli 08-85 mcr-1 positive isolate by checkerboard assay; type: functional
[6] = tested on: Staphylococcus epidermidis; assay: Antibacterial activity against methicillin-resistant Staphylococcus epidermidis 16-5 by agar method; type: functional
Escherichia coli [7] = assay: Antibacterial activity against ESBLs positive Escherichia coli ATCC 35218 by agar method; type: functional
Acinetobacter baumannii = assay: Antibacterial activity against carbapenem-resistant Acinetobacter baumannii 16-33 by agar method; type: functional
[8] = tested on: Staphylococcus epidermidis; assay: Potency index, ratio of Levofloxacin MIC to test compound MIC for antibacterial activity against methicillin-resistant Staphylococcus epidermidis […] 16-5; type: functional
Escherichia coli [9] = assay: Antibacterial activity against ESBLs negative Escherichia coli ATCC 25922 by agar method; type: functional
Escherichia coli [10] = assay: Synergistic antibacterial activity against carbapenem-resistant Escherichia coli 08-85 mcr-1 positive isolate in presence of colistin by checkerboard assay; type: functional
Enterobacter cloacae [11] = assay: Synergistic antibacterial activity against carbapenem-resistant Enterobacter cloacae D01 mcr-1 negative isolate assessed as fractional inhibitory concentration index in presence of colistin by checkerboard assay; type: functional
Enterococcus faecalis [12] = assay: Antibacterial activity against vancomycin-resistant Enterococcus faecalis ATCC 51299 by agar method; type: functional
[13] = tested on: Staphylococcus epidermidis; assay: Antibacterial activity against methicillin-sensitive Staphylococcus epidermidis ATCC 12228 by agar method; type: functional
Staphylococcus aureus [14] = assay: Antibacterial activity against methicillin-resistant Staphylococcus aureus ATCC 33591 by agar method; type: functional
Enterococcus faecalis [15] = assay: Antibacterial activity against Vancomycin-sensitive Enterococcus faecalis ATCC 29212 by agar method; type: functional
Escherichia coli [16] = assay: Synergistic antibacterial activity against carbapenem-resistant Escherichia coli 08-85 mcr-1 positive isolate assessed as fractional inhibitory concentration index in presence of colistin by checkerboard assay; type: functional

SMILES: O=C(/C=C/c1ccc2ccccc2n1)c1ccccn1
- MIC (Enterobacter cloacae [1]): 4 µg/mL
- MIC (Enterobacter cloacae [2]): 1020 µg/mL
- IC50 (A549): 18.5 µM
- MIC (Staphylococcus aureus [3]): 2 µg/mL (≈ 7.68 µM)
- MIC (Escherichia coli [4]): > 32 µg/mL
- MIC (Escherichia coli [5]): 1020 µg/mL
- MIC [6]: 1 µg/mL (≈ 3.84 µM)
- MIC (Escherichia coli [7]): > 32 µg/mL
- MIC (Acinetobacter baumannii): > 32 µg/mL
- Ratio [8]: 2
- MIC (Escherichia coli [9]): > 32 µg/mL
- MIC (Escherichia coli [10]): 32 µg/mL
- fractional inhibitory concentration index (FICI) (Enterobacter cloacae [11]): 0.012
- MIC (Enterococcus faecalis [12]): 4 µg/mL (≈ 15.4 µM)
- MIC [13]: 1 µg/mL (≈ 3.84 µM)
- MIC (Staphylococcus aureus [14]): 1 µg/mL (≈ 3.84 µM)
- MIC (Enterococcus faecalis [15]): 4 µg/mL (≈ 15.4 µM)
- fractional inhibitory concentration index (FICI) (Escherichia coli [16]): 0.281

SMILES: O=C(/C=C/c1ccc2ccccc2n1)c1ccccc1
- MIC (Staphylococcus aureus [3]): 2 µg/mL (≈ 7.71 µM)
- MIC (Escherichia coli [4]): > 128 µg/mL
- MIC [6]: 4 µg/mL (≈ 15.4 µM)
- MIC (Escherichia coli [7]): > 128 µg/mL
- MIC (Acinetobacter baumannii): > 128 µg/mL
- Ratio [8]: 2
- MIC (Escherichia coli [9]): > 128 µg/mL
- MIC (Enterococcus faecalis [12]): 128 µg/mL (≈ 494 µM)
- MIC [13]: 2 µg/mL (≈ 7.71 µM)
- MIC (Staphylococcus aureus [14]): 2 µg/mL (≈ 7.71 µM)
- MIC (Enterococcus faecalis [15]): 128 µg/mL (≈ 494 µM)

SMILES: O=C(/C=C/c1ccc2ccccc2n1)c1cccnc1
- MIC (Enterobacter cloacae [1]): 64 µg/mL
- MIC (Enterobacter cloacae [2]): 1020 µg/mL
- IC50 (A549): 21.1 µM
- MIC (Staphylococcus aureus [3]): 2 µg/mL (≈ 7.68 µM)
- MIC (Escherichia coli [4]): > 32 µg/mL
- MIC (Escherichia coli [5]): 1020 µg/mL
- MIC [6]: 4 µg/mL (≈ 15.4 µM)
- MIC (Escherichia coli [7]): > 32 µg/mL
- MIC (Acinetobacter baumannii): > 32 µg/mL
- Ratio [8]: 2
- MIC (Escherichia coli [9]): > 32 µg/mL
- MIC (Escherichia coli [10]): 64 µg/mL
- fractional inhibitory concentration index (FICI) (Enterobacter cloacae [11]): 0.07
- MIC (Enterococcus faecalis [12]): 8 µg/mL (≈ 30.7 µM)
- MIC [13]: 2 µg/mL (≈ 7.68 µM)
- MIC (Staphylococcus aureus [14]): 2 µg/mL (≈ 7.68 µM)
- MIC (Enterococcus faecalis [15]): 2 µg/mL (≈ 7.68 µM)
- fractional inhibitory concentration index (FICI) (Escherichia coli [16]): 0.313

SMILES: O=C(/C=C/c1ccccn1)c1ccc2ccccc2c1
- MIC (Enterobacter cloacae [1]): 16 µg/mL
- MIC (Enterobacter cloacae [2]): 1020 µg/mL
- MIC (Staphylococcus aureus [3]): 1 µg/mL (≈ 3.86 µM)
- MIC (Escherichia coli [4]): > 128 µg/mL
- MIC (Escherichia coli [5]): 1020 µg/mL
- MIC [6]: 2 µg/mL (≈ 7.71 µM)
- MIC (Escherichia coli [7]): > 128 µg/mL
- MIC (Acinetobacter baumannii): > 128 µg/mL
- MIC (Escherichia coli [9]): > 128 µg/mL
- MIC (Escherichia coli [10]): 128 µg/mL
- fractional inhibitory concentration index (FICI) (Enterobacter cloacae [11]): 0.023
- MIC (Enterococcus faecalis [12]): 8 µg/mL (≈ 30.9 µM)
- MIC [13]: 1 µg/mL (≈ 3.86 µM)
- MIC (Staphylococcus aureus [14]): 1 µg/mL (≈ 3.86 µM)
- MIC (Enterococcus faecalis [15]): 8 µg/mL (≈ 30.9 µM)
- fractional inhibitory concentration index (FICI) (Escherichia coli [16]): 0.375

SMILES: O=C(/C=C/c1ccc2c(C(F)(F)F)cccc2n1)c1cccnc1
- IC50 (A549): > 50 µM
- MIC (Staphylococcus aureus [3]): 2 µg/mL (≈ 6.09 µM)
- MIC (Escherichia coli [4]): > 128 µg/mL
- MIC [6]: 2 µg/mL (≈ 6.09 µM)
- MIC (Escherichia coli [7]): > 128 µg/mL
- MIC (Acinetobacter baumannii): 128 µg/mL (≈ 390 µM)
- Ratio [8]: 2
- MIC (Escherichia coli [9]): > 128 µg/mL
- MIC (Enterococcus faecalis [12]): 32 µg/mL (≈ 97.5 µM)
- MIC [13]: 2 µg/mL (≈ 6.09 µM)
- MIC (Staphylococcus aureus [14]): 2 µg/mL (≈ 6.09 µM)
- MIC (Enterococcus faecalis [15]): 32 µg/mL (≈ 97.5 µM)

SMILES: O=C(/C=C/c1ccc2ccc(C(F)(F)F)cc2n1)c1ccncc1 [PFK-158]
- MIC (Enterobacter cloacae [1]): 0.5 µg/mL
- MIC (Enterobacter cloacae [2]): 1020 µg/mL
- IC50 (A549): 15 µM
- MIC (Staphylococcus aureus [3]): 2 µg/mL (≈ 6.09 µM)
- MIC (Escherichia coli [4]): > 32 µg/mL
- MIC (Escherichia coli [5]): 1020 µg/mL
- MIC [6]: 2 µg/mL (≈ 6.09 µM)
- MIC (Escherichia coli [7]): > 32 µg/mL
- MIC (Acinetobacter baumannii): > 32 µg/mL
- Ratio [8]: 2
- MIC (Escherichia coli [9]): > 32 µg/mL
- MIC (Escherichia coli [10]): 2 µg/mL
- fractional inhibitory concentration index (FICI) (Enterobacter cloacae [11]): 0.008
- MIC (Enterococcus faecalis [12]): 4 µg/mL (≈ 12.2 µM)
- MIC [13]: 1 µg/mL (≈ 3.05 µM)
- MIC (Staphylococcus aureus [14]): 2 µg/mL (≈ 6.09 µM)
- MIC (Enterococcus faecalis [15]): 4 µg/mL (≈ 12.2 µM)
- fractional inhibitory concentration index (FICI) (Escherichia coli [16]): 0.252
